Measured values from patent US8168651B2, “Protein kinase modulators” (Cylene Pharmaceuticals, Inc., priority 2008, dated 2012).
Read-outs that look alike come from different tables or passages of the source.

What was measured:
Jurkat = assay: Cell proliferation modulatory activity, Jurkat; type: cell-based; details: Homo sapiens; Jurkat cells
[1] = tested on: HCT-116 human colorectal carcinoma cells; assay: Cell-proliferation assay using Alamar Blue dye; type: cell-based; details: Homo sapiens, HCT-116, second HCT-116 column (c8); read-out: HCT-116 (uM) cell proliferation modulatory activity;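 note: cells exposed to compound for about 4 days, then Alamar Blue added and dye fluorescence read after about 4 h, compared with medium-only control wells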
recombinant human PIM1 = recombinant human PIM1 (Homo sapiens (Human), UniProt P11309); assay: PIM-1 kinase activity in cell-free in vitro assay; type: biochemical; details: for inhibition at 0.5 µM: 500 nM compound, read-out: PIM-1: % inh 500 nM
Sequence of recombinant human PIM1 (P11309 whole entry): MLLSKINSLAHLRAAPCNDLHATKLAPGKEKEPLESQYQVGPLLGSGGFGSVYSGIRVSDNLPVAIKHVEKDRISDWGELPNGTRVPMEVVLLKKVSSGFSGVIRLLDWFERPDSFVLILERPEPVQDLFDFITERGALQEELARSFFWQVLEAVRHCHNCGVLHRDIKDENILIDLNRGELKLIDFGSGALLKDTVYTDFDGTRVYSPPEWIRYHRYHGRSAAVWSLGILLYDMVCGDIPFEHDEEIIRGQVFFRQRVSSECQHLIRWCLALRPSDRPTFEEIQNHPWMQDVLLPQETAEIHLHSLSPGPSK

K-562 [2] = assay: Cell proliferation modulatory activity, K-562; type: cell-based; details: Homo sapiens, K562; K-562 cells
MV-4-11 = assay: Cell proliferation modulatory activity, MV-4-11; type: cell-based; details: Homo sapiens, MV4-11; MV-4-11 cells
FLT3 autophos = FLT3 autophos (Homo sapiens (Human), UniProt P36888); assay: FLT3 autophos IC50 (Table 46); type: cell-based
Sequence of FLT3 autophos (P36888 27-993): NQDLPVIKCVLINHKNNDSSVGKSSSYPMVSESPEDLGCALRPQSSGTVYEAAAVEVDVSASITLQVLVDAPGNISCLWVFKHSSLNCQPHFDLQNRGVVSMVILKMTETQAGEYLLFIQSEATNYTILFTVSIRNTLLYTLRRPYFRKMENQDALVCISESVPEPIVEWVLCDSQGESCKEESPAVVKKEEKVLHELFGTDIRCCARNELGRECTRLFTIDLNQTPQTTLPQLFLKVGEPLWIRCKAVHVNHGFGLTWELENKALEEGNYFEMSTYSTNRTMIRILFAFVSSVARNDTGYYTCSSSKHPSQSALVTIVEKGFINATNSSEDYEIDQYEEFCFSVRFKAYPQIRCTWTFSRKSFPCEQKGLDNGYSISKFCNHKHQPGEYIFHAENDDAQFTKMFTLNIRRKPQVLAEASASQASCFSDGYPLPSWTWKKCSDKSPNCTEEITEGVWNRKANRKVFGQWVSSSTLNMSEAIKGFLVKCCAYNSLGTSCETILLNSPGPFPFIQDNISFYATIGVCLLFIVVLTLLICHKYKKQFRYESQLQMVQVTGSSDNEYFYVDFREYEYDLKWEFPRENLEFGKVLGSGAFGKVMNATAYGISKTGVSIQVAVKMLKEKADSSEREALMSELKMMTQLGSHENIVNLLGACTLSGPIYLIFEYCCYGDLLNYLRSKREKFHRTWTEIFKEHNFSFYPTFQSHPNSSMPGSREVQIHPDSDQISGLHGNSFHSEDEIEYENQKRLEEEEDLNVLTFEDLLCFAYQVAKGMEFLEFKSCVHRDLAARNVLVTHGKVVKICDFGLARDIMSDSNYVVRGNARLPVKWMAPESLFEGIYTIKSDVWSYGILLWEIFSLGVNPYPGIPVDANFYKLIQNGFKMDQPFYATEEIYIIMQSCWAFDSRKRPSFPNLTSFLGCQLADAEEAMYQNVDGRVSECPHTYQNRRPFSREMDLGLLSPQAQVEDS

phospho-BAD ser112 = phospho-BAD ser112 IC50 (Table 46); type: cell-based
MDA MB231 = MDA MB231 IC50 (Table 46); type: cell-based; details: Homo sapiens, MDA-MB-231
MV-411 = MV-411 IC50 (Table 46); type: cell-based; details: Homo sapiens, MV4-11
K-562 [3] = assay: K-562 IC50 (Table 46); type: cell-based; details: Homo sapiens, K562
[4] = tested on: PC-3 human prostatic cancer cells; assay: Cell-proliferation assay using Alamar Blue dye; type: cell-based; details: read-out: PC3 IC50
How it was run: (§1)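 Readout: Alamar Blue fluorescence, 544 nm ex/590 nm em, taken after a 4 h dye step. Before that, cells (4,000-5,000 per well) had been incubated with serially diluted compound for 4 days at 37° C. under 5% CO2; wells without compound and wells without cells served as controls.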

[5] = tested on: MiaPaca human pancreatic carcinoma cells; assay: Cell-proliferation assay using Alamar Blue dye; type: cell-based; details: MIA PaCa-2
How it was run: as §1

Flt3 = Flt3 (Homo sapiens (Human), UniProt P36888); details: cited from earlier work
Sequence of Flt3 (P36888 27-993): as above

MiaPaca xenografts = assay: Tumor suppression in MiaPaca xenograft mice; type: in vivo, NCr nu/nu mice; details: IV administration
Procedure: Animals were handled under laminar-flow hoods.
Tumor volume measurements (FIG. 3A) and body weight (FIG. 3B) were recorded on days 3, 6, 8, 10, 13 and 15.
Gemzar™ administered at a dose of 80 mg/kg IP Q3D was used as a positive control.

[6] = tested on: leukemic cells from AML patients; details: cited from earlier work
MV-4-11 (AML) xenograft = MV-4-11 (AML) xenograft model; cited from earlier work
MOLM-13 (AML) xenograft = MOLM-13 (AML) xenograft model; cited from earlier work
LNCaP = assay: Cell-proliferation assay using Alamar Blue dye; type: cell-based; details: Homo sapiens
Procedure: (§2) A representative cell-proliferation assay protocol using Alamar Blue dye (stored at 4° C., use 20 ul per well) is described hereafter.
(§3) 96-Well Plate Setup and Compound Treatment
(§4) • a. Split and trypsinize cells. • b. Count cells using hemocytometer. • c. Plate 4,000-5,000 cells per well in 100 μl of medium and seed into a 96-well plate according to the following plate layout. Add cell culture medium only to wells B10 to B12. Wells B1 to B9 have cells but no compound added.
(§5) • d. Add 100 μl of 2× drug dilution to each well in a concentration shown in the plate layout above. At the same time, add 100 μl of media into the control wells (wells B10 to B12). Total volume is 200 μl/well. • e. Incubate four (4) days at 37° C., 5% CO2 in a humidified incubator. • f. Add 20 μl Alamar Blue reagent to each well. • g. Incubate for four (4) hours at 37° C., 5% CO2 in a humidified incubator. • h. Record fluorescence at an excitation wavelength of 544 nm and emission wavelength of 590 nm using a microplate reader.
(§6) In the assays, cells are cultured with a test compound for approximately four days, the dye then is added to the cells and fluorescence of […] dye is detected after approximately four hours. Different types of cells can be utilized in the assays (e.g., HCT-116 human colorectal carcinoma cells, PC-3 human prostatic cancer cells and MiaPaca human pancreatic carcinoma cells). Anti-proliferative effects of representative compounds are provided hereafter

A549 = assay: Cell-proliferation assay using Alamar Blue dye; type: cell-based; details: Homo sapiens
Procedure: as §2, §3, §4, §5, §6

MCF-7 = assay: Cell-proliferation assay using Alamar Blue dye; type: cell-based; details: Homo sapiens, MCF7
Procedure: as §2, §3, §4, §5, §6

MDAMB231 = assay: Cell-proliferation assay using Alamar Blue dye; type: cell-based; details: Homo sapiens, MDA-MB-231
Procedure: as §2, §3, §4, §5, §6

K-562 [7] = assay: Cell-proliferation assay using Alamar Blue dye; type: cell-based; details: Homo sapiens, K562

Compound | IC50 (FLT3 autophos) [µM] | IC50 (phospho-BAD ser112) [µM] | IC50 (MDA MB231) [µM] | IC50 (MV-411) [µM] | IC50 (K-562 [3]) [µM] | IC50 (recombinant human PIM1) [µM] | IC50 [4] [µM] | other results
O=C(O)c1ccc2c(c1)nc(Nc1ccc(OCc3ccccc3)cc1)c1ccncc12 | – | – | – | – | – | – | – | IC50 (Jurkat): 14.2 µM; IC50 [1]: > 10 µM; inhibition at 0.5 µM (recombinant human PIM1; cell-free assay): 44.3%
O=C(O)c1ccc2c(c1)nc(Nc1ccccc1OCc1ccccc1)c1ccncc12 | – | – | – | – | – | – | – | IC50 (K-562 [2]): > 10 µM; IC50 (Jurkat): 29.8 µM; IC50 [1]: > 10 µM; inhibition at 0.5 µM (recombinant human PIM1; cell-free assay): 27.7%; IC50 (MV-4-11): > 10 µM
O=C(O)c1ccc2c(c1)nc(Nc1ccc3c(c1)OCCO3)c1ccncc12 | – | – | – | – | – | – | – | IC50 (K-562 [2]): > 10 µM; IC50 (Jurkat): 29.6 µM; IC50 [1]: > 10 µM; inhibition at 0.5 µM (recombinant human PIM1; cell-free assay): 88.4%; IC50 (recombinant human PIM1; cell-free assay): 0.259 µM; IC50 (MV-4-11): > 10 µM
C[C@]12O[C@H](C[C@]1(O)CO)n1c3ccccc3c3c4c(c5c6ccccc6n2c5c31)CNC4=O [CEP-701] | – | – | – | – | – | – | – | inhibition of Flt3 (Flt3): potent inhibitor
O=C(O)c1ccc2c(c1)nc(Nc1cccc(C(F)(F)F)c1)c1nc(NC3CC3)ncc12 [Compound A3] | – | – | – | – | – | – | – | tumor progression (MiaPaca xenografts): significantly inhibited tumor progression
CN(C)C[C@@H]1CCn2cc(c3ccccc32)C2=C(C(=O)NC2=O)c2cn(c3ccccc23)CCO1 [Ly5333′531] | – | – | – | – | – | – | – | cell growth and cell death [6]: suppressed cell growth and induced cell death
CN1CCC(CNc2ccc3ncc(-c4cccc(OC(F)(F)F)c4)n3n2)CC1 [SGI-1776] | – | – | – | – | – | – | – | tumor regression (MV-4-11 (AML) xenograft): significant tumor regression; tumor regression (MOLM-13 (AML) xenograft): significant tumor regression
O=C(O)c1ccc2c(c1)nc(NCCc1ccccc1)c1ccncc12 [drawing 988] | – | – | – | – | – | – | – | IC50 (LNCaP): 8.6 µM; IC50 (A549): 47 µM; IC50 (MCF-7): 14.7 µM
O=C(O)c1ccc2c(c1)nc(NCCc1cccc(Cl)c1)c1ccncc12 [drawing 1001] | – | – | – | – | – | – | – | IC50 (LNCaP): 13.9 µM; IC50 (A549): 32.5 µM; IC50 (MCF-7): 47.6 µM; IC50 (MDAMB231): 14.2 µM; IC50 (K-562 [7]): 9.18 µM
O=C(O)c1ccc2c(c1)nc(NCCc1cccc(F)c1)c1ccncc12 [drawing 1002] | – | – | – | – | – | – | – | IC50 (LNCaP): 10.3 µM; IC50 (A549): 47.2 µM; IC50 (MCF-7): > 50 µM; IC50 (MDAMB231): 5.83 µM
O=C(O)c1ccc2c(c1)nc(NCCCc1ccccc1)c1ccncc12 [drawing 1003] | – | – | – | – | – | – | – | IC50 (LNCaP): 10.4 µM; IC50 (A549): > 50 µM; IC50 (MCF-7): > 50 µM; IC50 (MDAMB231): 7.66 µM; IC50 (K-562 [7]): 7.17 µM

More lines, main results first:

IC50 (FLT3 autophos) [µM] | IC50 (phospho-BAD ser112) [µM] | IC50 (MDA MB231) [µM] | IC50 (MV-411) [µM] | IC50 (K-562 [3]) [µM] | IC50 (recombinant human PIM1) [µM] | IC50 [4] [µM] | Compound | other results
> 10 | < 0.1 | < 1 | < 0.1 | < 0.5 | < 0.1 | – | Fc1cc(OCCN2CCCC2)ccc1Nc1nc2c(-c3nnc[nH]3)cccc2c2cnccc12 | –
> 10 | < 0.1 | 2.56 | < 0.1 | < 0.1 | < 0.1 | 1.77 | CN(C)CCOc1ccc(Nc2nc3c(-c4nnc[nH]4)cccc3c3cnccc23)cc1 | –
5.41 | < 0.1 | 1.23 | < 0.1 | 6.94 | < 0.1 | – | CN(C)CCOc1ccc(Nc2nc3c(-c4nnc[nH]4)cccc3c3cnccc23)c(Cl)c1 | –
6.01 | < 0.1 | > 10 | < 0.1 | > 10 | < 0.1 | > 30 | Clc1cc(OCCN2CCOCC2)ccc1Nc1nc2c(-c3nnc[nH]3)cccc2c2cnccc12 | –
> 10 | < 0.5 | 2.04 | < 0.1 | < 0.5 | < 0.1 | < 1 | c1cc(-c2nnc[nH]2)c2nc(Nc3ccc(OCCN4CCOCC4)cc3)c3ccncc3c2c1 | IC50 [5]: 0.268 µM
> 10 | < 0.1 | > 10 | < 0.1 | < 0.5 | < 0.1 | < 0.5 | c1cc(-c2nnc[nH]2)c2nc(NC3CCC3)c3ccncc3c2c1 | IC50 [5]: 7.62 µM
> 10 | 0.51 | 6.86 | < 0.1 | < 1 | < 0.1 | < 0.5 | COc1ccc(Nc2nc3c(-c4nnc[nH]4)cccc3c3cnccc23)c(F)c1 | IC50 [5]: < 0.5 µM
> 10 | 2.94 | > 10 | < 1 | 3.23 | < 0.5 | > 30 | c1cc(-c2nnc[nH]2)c2nc(N3CCCC3)c3ccncc3c2c1 | IC50 [5]: < 0.1 µM
> 10 | < 0.5 | > 10 | < 0.5 | 1.93 | < 0.1 | > 30 | c1cc(-c2nnc[nH]2)c2nc(NC3CCCC3)c3ccncc3c2c1 | –
> 10 | 4.17 | > 10 | < 0.1 | > 10 | < 0.1 | > 30 | FC(F)(F)Oc1ccc(Nc2nc3c(-c4nnc[nH]4)cccc3c3cnccc23)c(Cl)c1 | IC50 [5]: > 10 µM
